From patent EP0923548B1, “4-A[…] AS DOPAMIN D2 AGONISTS AND AS 5HT 1A LIGANDS” (Wyeth, priority 1996, dated 1998)

Target: T1, dopamine autoreceptor (Rattus norvegicus, UniProt P61169)
T1 construct: homogenized rat striatal brain tissue; from tissue; host or cells: rat striatal brain tissue homogenate
Test: Dopamine autoreceptor affinity, 3H-quinpirole binding in homogenized rat striatal brain tissue
Settings: for Ratio ant/agonist: ratio of D2 Spiper IC50 to D2 Quin. IC50 (LowAg/HighAg, predicts intrinsic activity)
Description: Affinity for the dopamine autoreceptor was established by a modification of the standard experimental test procedure of Seemen and Schaus, European Journal of Pharmacology 203, 105-109 (1991), wherein homogenized rat striatal brain tissue is incubated with ^3H-quinpirole (Quin.)and various concentrations of test compound, filtered and washed and counted in a Betaplate scintillation counter.

T1 sequence (P61169 whole entry): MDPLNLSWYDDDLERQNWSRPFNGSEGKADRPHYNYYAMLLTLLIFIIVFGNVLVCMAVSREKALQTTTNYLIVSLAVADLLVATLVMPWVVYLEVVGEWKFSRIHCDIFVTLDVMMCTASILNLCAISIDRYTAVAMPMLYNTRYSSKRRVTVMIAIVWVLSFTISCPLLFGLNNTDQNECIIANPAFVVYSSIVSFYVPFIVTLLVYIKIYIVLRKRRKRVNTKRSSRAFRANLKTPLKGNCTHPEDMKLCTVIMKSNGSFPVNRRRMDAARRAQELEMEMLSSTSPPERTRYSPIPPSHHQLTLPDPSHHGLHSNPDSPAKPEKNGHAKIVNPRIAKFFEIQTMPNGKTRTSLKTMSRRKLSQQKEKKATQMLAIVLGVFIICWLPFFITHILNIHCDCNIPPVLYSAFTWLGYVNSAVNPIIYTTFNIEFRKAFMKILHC

Compound | IC50 | Ratio ant/agonist
Clc1c[nH]c2cccc(OCCNCCCCc3ccccc3)c12 [(2a), [2-(3-Chloro-1H-indol-4-yloxy)-ethyl]-(4-phenyl-butyl)-amine] | 9.55 nM | 20
c1ccc(CNCCOc2cccc3[nH]ccc23)cc1 [(3b), N-Benzyl-[2-(1H-indol-4-yloxy)]-ethylamine] | 19.4 nM | 26
O=C(c1c[nH]c2cccc(OCCNCc3ccccc3)c12)C(F)(F)F [(3a), 1-[4-(2-Benzylamino-ethoxy)-1H-indol-3-yl]-2,2,2-trifluoro-ethanone] | 5.93 nM | 48
Clc1ccc(OCCNCc2ccccc2)c2c(Cl)c[nH]c12 [(1c), Benzyl-[2-(3,7-dichloro-1H-indol-4-yloxy)-ethyl]-amine] | 13.6 nM | 21
Clc1ccc(OCCNCc2ccccc2)c2cc[nH]c12 [(1b), Benzyl-[2-(7-chloro-1H-indol-4-yloxy)-ethyl]-amine] | 14.9 nM | 12
Clc1ccc(OCCNCc2cccs2)c2c(Cl)c[nH]c12 [(1f), Thien-2-ylmethyl-[2-(3,7-dichloro-1H-indol-4-yloxy)-ethyl]-amine] | 22.5 nM | 18
c1ccc(CCCCNCCOc2cccc3[nH]ccc23)cc1 [(1a), [2-(1H-Indol-4-yloxy)-ethyl]-(4-phenyl-butyl)-amine] | 10.5 nM | 18
